Key:
[1] = xn = mol fraction of the nth substance listed; conditions: 101 kPa, Liquid
[2] = refractive index (Na D-line) (dimensionless); xn = mol fraction of the nth substance listed; conditions: 101 kPa, Liquid

CCn1cc[n+](C)c1.[Cl-] [1-ethyl-3-methylimidazolium chloride] + CN(C)C=O
Conditions | mass density, [1] [kg/m3] | refractive index, [2] | viscosity, [1] [mPa·s]
288.15 K, x1 = 0.0102 | 958.86 | 1.43565 | 1.023
288.15 K, x1 = 0.0203 | 963.47 | 1.43836 | 1.156
288.15 K, x1 = 0.031 | 968.07 | 1.44091 | 1.188
288.15 K, x1 = 0.0417 | 972.24 | 1.44354 | 1.327
288.15 K, x1 = 0.0524 | 976.38 | 1.44588 | 1.399
288.15 K, x1 = 0.0635 | 980.82 | 1.44822 | 1.535
288.15 K, x1 = 0.0752 | 984.98 | 1.45067 | 1.765
288.15 K, x1 = 0.0867 | 989.33 | 1.45308 | 1.867
288.15 K, x1 = 0.0988 | 993.32 | 1.45542 | 2.123
288.15 K, x1 = 0.1107 | 997.33 | 1.45784 | 2.25
288.15 K, x1 = 0.1232 | 1001.39 | 1.46021 | 2.429
288.15 K, x1 = 0.1361 | 1005.6 | 1.46253 | 2.766
288.15 K, x1 = 0.1489 | 1009.6 | 1.46477 | 3.002
288.15 K, x1 = 0.1626 | 1013.74 | 1.46721 | 3.293
288.15 K, x1 = 0.1759 | 1017.7 | 1.46942 | 3.645
298.15 K, x1 = 0.0102 | 949.52 | 1.43106 | 0.8935
298.15 K, x1 = 0.0203 | 954.18 | 1.43346 | 1.007
298.15 K, x1 = 0.031 | 958.86 | 1.4364 | 1.03
298.15 K, x1 = 0.0417 | 963.18 | 1.43872 | 1.147
298.15 K, x1 = 0.0524 | 967.27 | 1.44144 | 1.198
298.15 K, x1 = 0.0635 | 971.86 | 1.44361 | 1.312
298.15 K, x1 = 0.0752 | 976.05 | 1.44626 | 1.501
298.15 K, x1 = 0.0867 | 980.59 | 1.44855 | 1.577
298.15 K, x1 = 0.0988 | 984.64 | 1.4511 | 1.784
298.15 K, x1 = 0.1107 | 988.67 | 1.45354 | 1.879
298.15 K, x1 = 0.1232 | 992.88 | 1.45597 | 2.014
298.15 K, x1 = 0.1361 | 997.07 | 1.45827 | 2.278
298.15 K, x1 = 0.1489 | 1001.24 | 1.46065 | 2.453
298.15 K, x1 = 0.1626 | 1005.4 | 1.46302 | 2.672
298.15 K, x1 = 0.1759 | 1009.49 | 1.46536 | 2.922
308.15 K, x1 = 0.0102 | 940.08 | 1.42654 | 0.7902
308.15 K, x1 = 0.0203 | 944.84 | 1.42888 | 0.8895
308.15 K, x1 = 0.031 | 949.62 | 1.43189 | 0.9058
308.15 K, x1 = 0.0417 | 954.02 | 1.43416 | 1.004
308.15 K, x1 = 0.0524 | 958.21 | 1.43691 | 1.045
308.15 K, x1 = 0.0635 | 962.87 | 1.43896 | 1.139
308.15 K, x1 = 0.0752 | 967.15 | 1.4419 | 1.297
308.15 K, x1 = 0.0867 | 971.78 | 1.44372 | 1.355
308.15 K, x1 = 0.0988 | 975.93 | 1.44678 | 1.527
308.15 K, x1 = 0.1107 | 980.02 | 1.44907 | 1.625
308.15 K, x1 = 0.1232 | 984.31 | 1.45167 | 1.705
308.15 K, x1 = 0.1361 | 988.59 | 1.45406 | 1.916
308.15 K, x1 = 0.1489 | 992.84 | 1.45621 | 2.051
308.15 K, x1 = 0.1626 | 997.09 | 1.45888 | 2.251
308.15 K, x1 = 0.1759 | 1001.24 | 1.46102 | 2.406
318.15 K, x1 = 0.0102 | 930.6 | 1.42218 | 0.7059
318.15 K, x1 = 0.0203 | 935.4 | 1.4245 | 0.794
318.15 K, x1 = 0.031 | 940.37 | 1.4275 | 0.8045
318.15 K, x1 = 0.0417 | 944.85 | 1.42977 | 0.8901
318.15 K, x1 = 0.0524 | 949.12 | 1.43252 | 0.923
318.15 K, x1 = 0.0635 | 953.87 | 1.43477 | 1.002
318.15 K, x1 = 0.0752 | 958.24 | 1.43765 | 1.136
318.15 K, x1 = 0.0867 | 962.96 | 1.43964 | 1.181
318.15 K, x1 = 0.0988 | 967.2 | 1.44253 | 1.327
318.15 K, x1 = 0.1107 | 971.44 | 1.445 | 1.404
318.15 K, x1 = 0.1232 | 975.73 | 1.44746 | 1.468
318.15 K, x1 = 0.1361 | 980.13 | 1.44986 | 1.64
318.15 K, x1 = 0.1489 | 984.44 | 1.45192 | 1.748
318.15 K, x1 = 0.1626 | 988.83 | 1.45477 | 1.905
318.15 K, x1 = 0.1759 | 993.01 | 1.45679 | 2.02

— the NIST ThermoML archive (doi:10.1021/je4009238)
